Reference: patent publication US11524966B1 (Valo Early Discovery, Inc., priority 2017, dated 2022)

Target: T1, USP28 (His-tagged USP28-FL-mammalian) (Homo sapiens, UniProt Q96RU2)
T1 construct: Expression of USP28 (1-1077)-TEV-6*His (pTT5 vector); made in house; host or cells: Expi293f cells (pTT5 vector)
T1 sequence (Q96RU2 1-1077): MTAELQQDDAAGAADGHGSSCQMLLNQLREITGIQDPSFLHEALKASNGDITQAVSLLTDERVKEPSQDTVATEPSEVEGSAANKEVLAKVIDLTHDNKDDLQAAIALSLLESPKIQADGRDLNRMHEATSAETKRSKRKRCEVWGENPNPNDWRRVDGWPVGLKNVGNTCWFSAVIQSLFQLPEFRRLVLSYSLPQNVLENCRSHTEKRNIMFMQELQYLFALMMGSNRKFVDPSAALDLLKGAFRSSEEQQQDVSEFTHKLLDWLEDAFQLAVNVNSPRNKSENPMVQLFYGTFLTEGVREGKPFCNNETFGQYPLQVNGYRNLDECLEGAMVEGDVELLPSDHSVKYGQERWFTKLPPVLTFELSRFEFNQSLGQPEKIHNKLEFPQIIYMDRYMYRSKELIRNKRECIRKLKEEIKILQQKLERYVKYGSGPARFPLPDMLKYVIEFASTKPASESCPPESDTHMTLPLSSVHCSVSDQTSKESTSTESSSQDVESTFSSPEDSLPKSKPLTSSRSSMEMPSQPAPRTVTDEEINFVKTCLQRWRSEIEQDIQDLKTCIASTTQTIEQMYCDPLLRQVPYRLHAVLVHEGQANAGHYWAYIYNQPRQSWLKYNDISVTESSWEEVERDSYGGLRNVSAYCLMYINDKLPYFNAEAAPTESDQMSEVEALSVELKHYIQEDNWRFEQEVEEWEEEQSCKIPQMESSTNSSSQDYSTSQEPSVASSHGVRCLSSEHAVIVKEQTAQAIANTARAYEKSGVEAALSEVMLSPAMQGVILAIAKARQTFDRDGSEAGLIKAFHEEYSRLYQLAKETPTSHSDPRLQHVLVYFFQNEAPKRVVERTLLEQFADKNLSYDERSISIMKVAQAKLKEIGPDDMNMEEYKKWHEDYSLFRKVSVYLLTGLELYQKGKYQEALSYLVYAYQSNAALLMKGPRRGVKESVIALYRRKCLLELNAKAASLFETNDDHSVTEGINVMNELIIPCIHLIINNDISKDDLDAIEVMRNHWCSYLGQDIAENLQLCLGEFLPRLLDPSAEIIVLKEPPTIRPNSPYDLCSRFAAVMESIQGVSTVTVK
Test: Ubiquitin-Rhodamine 110 Assay for USP28 Activity, Example A-1(a)
Format: biochemical
Settings: Ubiquitin-Rhodamine 110 assay, Example A-1(a); read-out: USP28 A-1(a) IC50 range
Method in brief: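 IC50 from 4-parameter logistic fit of percent inhibition versus no-enzyme and DMSO controls; compounds 25 μM to 1.3 nM, 3-fold. Ub-Rh110 cleavage (25 nM, below Km) by […] mammalian-expressed USP28-FL-His ran 45 min at room temperature, stopped with 10 mM citric acid, read ex 485/em 535.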

Row | SMILES | IC50 [nM]
1 | Cc1cc(C)c2c(N)c(C(=O)N[C@H]3COc4cc(N5CC[C@H]6CNC[C@H]65)ccc4C3)sc2n1 [Example 226, N-[(3R)-7-[(3aS,6aS)-octahydropyrrolo[2,3-c]pyrrol-1-yl]-3,4-dihydro-2H-1-benzopyran-3-yl]-3-amino-4,6-dimethylthieno[2,3-b]pyridine-2-carboxamide] | 1 to 50
2 | COC[C@H]1CN(c2ccc3c(c2)CC[C@H](NC(=O)c2sc4nc(C)ccc4c2N)C3)C[C@H]1N [Example 253, 3-amino-N-[(2S)-6-[(3S,4S)-3-amino-4-(methoxymethyl)pyrrolidin-1-yl]-1,2,3,4-tetrahydronaphthalen-2-yl]-6-methylthieno[2,3-b]pyridine-2-carboxamide] | 1 to 50
3 | O=C(N[C@@H]1CCc2cc(N3CC4CCC(C3)N4)cc(F)c2C1)c1cnc2c(c1)[C@H]1C[C@H]1CN2 [Example 194, (6aR,7aS)-N-[(2R)-6-{3,8-diazabicyclo[3.2.1]octan-3-yl}-8-fluoro-1,2,3,4-tetrahydronaphthalen-2-yl]-5H,6H,6aH,7H,7aH-cyclopropa[c]1,8-naphthyridine-2-carboxamide] | 200 to 2000
4 | Cc1ccc2c(N)c(C(=O)N[C@H]3COc4cc(N5C[C@H](N)CC[C@H]5C(F)(F)F)ccc4C3)sc2n1 [Example 247, 3-amino-N-[(3R)-7-[(2S,5R)-5-amino-2-(trifluoromethyl)piperidin-1-yl]-3,4-dihydro-2H-1-benzopyran-3-yl]-6-methylthieno[2,3-b]pyridine-2-carboxamide] | 1 to 50
5 | Cc1ccc2c(N)c(C(=O)N[C@H]3COc4cc(N5CC[C@@H]6CNC[C@@H]65)cc(F)c4C3)sc2n1 [Example 221, N-[(3R)-7-[(3aR,6aR)-octahydropyrrolo[2,3-c]pyrrol-1-yl]-5-fluoro-3,4-dihydro-2H-1-benzopyran-3-yl]-3-amino-6-methylthieno[2,3-b]pyridine-2-carboxamide] | 1 to 50
6 | CCO[C@@H]1CN(c2ccc3c(n2)CC[C@H](NC(=O)c2sc4nc(C)ccc4c2N)C3)C[C@@H]1N [Example 254, 3-amino-N-[(6S)-2-[(3S,4R)-3-amino-4-ethoxypyrrolidin-1-yl]-5,6,7,8-tetrahydroquinolin-6-yl]-6-methylthieno[2,3-b]pyridine-2-carboxamide] | 50 to 200
7 | N#Cc1c(N2CC3CCC(C2)N3)cc(F)c2c1CC[C@H](NC(=O)c1cnc3c(c1)[C@H]1C[C@H]1CN3)C2 [Example 196, (6aR,7aS)-N-[(2S)-5-cyano-6-{3,8-diazabicyclo[3.2.1]octan-3-yl}-8-fluoro-1,2,3,4-tetrahydronaphthalen-2-yl]-5H,6H,6aH,7H,7aH-cyclopropa[c]1,8-naphthyridine-2-carboxamide] | > 2000
8 | Cc1ccc2c(N)c(C(=O)N[C@H]3COc4cc(N5CC6CCC[C@@]6(N)C5)ccc4C3)sc2n1 (stereo partly drawn) [Example 248, N-[(3R)-7-[(3aS)-3a-amino-octahydrocyclopenta[c]pyrrol-2-yl]-3,4-dihydro-2H-1-benzopyran-3-yl]-3-amino-6-methylthieno[2,3-b]pyridine-2-carboxamide] | 1 to 50
9 | CO[C@H]1CN(c2ccc3c(n2)CC[C@H](NC(=O)c2sc4nc(C)c(F)cc4c2N)C3)C[C@@H]1N [Example 203, 3-amino-N-[(6S)-2-[(3S,4S)-3-amino-4-methoxypyrrolidin-1-yl]-5,6,7,8-tetrahydroquinolin-6-yl}-5-fluoro-6-methylthieno[2,3-b]pyridine-2-carboxamide] | 50 to 200
10 | Cc1nc2sc(C(=O)N[C@H]3CCc4nc(N5CCNCC5)ccc4C3)c(N)c2cc1F [Example 204, 3-amino-5-fluoro-6-methyl-N-[(6S)-2-(piperazin-1-yl)-5,6,7,8-tetrahydroquinolin-6-yl]thieno[2,3-b]pyridine-2-carboxamide] | 1 to 50
11 | Cc1ccc2c(N)c(C(=O)N[C@H]3COc4cc(N5C[C@H](N)C6(COC6)C5)ccc4C3)sc2n1 [Example 258, 3-amino-N-[(3R)-7-[(8R)-8-amino-2-oxa-6-azaspiro[3.4]octan-6-yl]-3,4-dihydro-2H-1-benzopyran-3-yl]-6-methylthieno[2,3-b]pyridine-2-carboxamide] | 1 to 50
12 | Cc1ccc2c(N)c(C(=O)N[C@@H]3Cc4ccc(N5CCNCC5)nc4[C@@H](C)C3)sc2n1 (single isomer, unassigned) [Example 205] | 200 to 2000
13 | Cc1ccc2c(N)c(C(=O)N[C@@H]3Cc4ccc(N5CCNCC5)nc4[C@H](C)C3)sc2n1 [Example 207, 3-amino-6-methyl-N-[(6S,8R)-8-methyl-2-(piperazin-1-yl)-5,6,7,8-tetrahydroquinolin-6-yl]thieno[2,3-b]pyridine-2-carboxamide] | 200 to 2000
14 | Cc1ccc2c(N)c(C(=O)N[C@H]3COc4cc(N5CC[C@H]6CCNC[C@H]65)ccc4C3)sc2n1 [Example 224, N-[(3R)-7-[(3aR,7aS)-octahydro-1H-pyrrolo[2,3-c]pyridin-1-yl]-3,4-dihydro-2H-1-benzopyran-3-yl]-3-amino-6-methylthieno[2,3-b]pyridine-2-carboxamide] | 1 to 50
15 | Cc1cc(C)c2c(N)c(C(=O)N[C@H]3COc4c(C#N)c(N5CC6CCC(C5)N6)cc(F)c4C3)sc2n1 [Example 230, 3-amino-N-[(3R)-8-cyano-7-{3,8-diazabicyclo[3.2.1]octan-3-yl}-5-fluoro-3,4-dihydro-2H-1-benzopyran-3-yl]-4,6-dimethylthieno[2,3-b]pyridine-2-carboxamide] | 1 to 50
16 | Cc1ccc2c(N)c(C(=O)N[C@H]3COc4cc(N5CC[C@H]6CC[C@H](N)C[C@H]65)ccc4C3)sc2n1 [Example 232, N-[(3R)-7-[(3aR,6S,7aR)-6-amino-octahydro-1H-indol-1-yl]-3,4-dihydro-2H-1-benzopyran-3-yl]-3-amino-6-methylthieno[2,3-b]pyridine-2-carboxamide] | 1 to 50
17 | Cc1ccc2c(N)c(C(=O)N[C@H]3COc4cc(N5CCC[C@H]6CNC[C@H]65)ccc4C3)sc2n1 [Example 243, N-[(3R)-7-[(4aS,7aS)-octahydro-1H-pyrrolo[3,4-b]pyridin-1-yl]-3,4-dihydro-2H-1-benzopyran-3-yl]-3-amino-6-methylthieno[2,3-b]pyridine-2-carboxamide] | 1 to 50
18 | CCO[C@H]1CN(c2ccc3c(n2)OC[C@H](NC(=O)c2sc4nc(C)cnc4c2N)C3)C[C@@H]1N [Example 182, 7-amino-N-[(3R)-7-[(3S,4S)-3-amino-4-ethoxypyrrolidin-1-yl]-2H,3H,4H-pyrano[2,3-b]pyridin-3-yl]-3-methylthieno[2,3-b]pyrazine-6-carboxamide] | 200 to 2000
19 | Cc1ccc2c(N)c(C(=O)N[C@H]3COc4cc(N5C[C@H]6NCCC(F)(F)[C@H]6C5)ccc4C3)sc2n1 [Example 238, N-[(3R)-7-[(4aS,7aS)-4,4-difluoro-octahydro-1H-pyrrolo[3,4-b]pyridin-6-yl]-3,4-dihydro-2H-1-benzopyran-3-yl]-3-amino-6-methylthieno[2,3-b]pyridine-2-carboxamide] | 1 to 50
20 | O=C(N[C@H]1CCc2cc(N3CC4CCC(C3)N4)cc(F)c2C1)c1cnc2c(c1)[C@H]1C[C@H]1CN2 [Example 192, (6aR,7aS)-N-[(2S)-6-{3,8-diazabicyclo[3.2.1]octan-3-yl}-8-fluoro-1,2,3,4-tetrahydronaphthalen-2-yl]-5H,6H,6aH,7H,7aH-cyclopropa[c]1,8-naphthyridine-2-carboxamide] | 50 to 200
21 | COC[C@@H]1CN(c2cc(F)c3c(c2)OC[C@H](NC(=O)c2sc4nc(C)ccc4c2N)C3)C[C@@H]1N [Example 250, 3-amino-N-[(3R)-7-[(3R,4R)-3-amino-4-(methoxymethyl)pyrrolidin-1-yl]-5-fluoro-3,4-dihydro-2H-1-benzopyran-3-yl]-6-methylthieno[2,3-b]pyridine-2-carboxamide] | 1 to 50
22 | Cc1ccc2c(N)c(C(=O)N[C@H]3COc4cc(N5CC[C@@H]6CNCC[C@@H]65)ccc4C3)sc2n1 [Example 236, N-[(3R)-7-[(3aR,7aS)-octahydro-1H-pyrrolo[3,2-c]pyridin-1-yl]-3,4-dihydro-2H-1-benzopyran-3-yl]-3-amino-6-methylthieno[2,3-b]pyridine-2-carboxamide] | 1 to 50
